Species: Rattus norvegicus
Test: Open TG-GATES - Regimen: Single
Type: toxicity, organism-based, Sprague-Dawley
Parameters: regimen Single, gender Male, age 6 weeks
Details: in vivo, po, route gavage; for AST / BUN / CRE / Ca / Cl / DBIL / GLC / IP / K / LDH / Na / PL / RALB / TBIL / TC / TG / TP / gamma-GTP / A/G / ALP / ALT: tissue Plasma; for APTT / Bas / Eos / Fbg / Hb / Ht / Lym / MCH / MCHC / MCV / Mono / Neu / PT / Plat / RBC / Ret / WBC: tissue Blood; for KIDNEY_L / KIDNEY_R / KIDNEY_TOTAL: tissue Kidney; for LIVER: tissue Liver
[1] = 100 mg/kg, 24 h, dose level High
[2] = 100 mg/kg, 24 h, dose level Low
[3] = 300 mg/kg, 3 h, dose level Middle
[4] = 300 mg/kg, 6 h, dose level Middle

Work on `O=C1CN(/N=C/c2ccc([N+](=O)[O-])o2)C(=O)N1` [NITROFURANTOIN] yielded an AST (100 mg/kg, 9 h, dose level Low) of 66 IU/L, a BUN (100 mg/kg, 9 h, dose level Low) of 14.8 mg/dL and a CRE (100 mg/kg, 9 h, dose level Low) of 0.4 mg/dL. For the same molecule, the Ca (100 mg/kg, 9 h, dose level Low) was 11.2 mg/dL, the Cl (100 mg/kg, 9 h, dose level Low) was 105 meq/L and the DBIL (100 mg/kg, 9 h, dose level Low) was 0.01 mg/dL. It also gave a GLC (100 mg/kg, 9 h, dose level Low) of 187.2 mg/dL, an IP (100 mg/kg, 9 h, dose level Low) of 7.8 mg/dL and a K (100 mg/kg, 9 h, dose level Low) of 4.8 meq/L. For the same molecule, the LDH (100 mg/kg, 9 h, dose level Low) was 62.8 IU/L, the Na (100 mg/kg, 9 h, dose level Low) was 138.2 meq/L and the PL (100 mg/kg, 9 h, dose level Low) was 137.8 mg/dL. For the same molecule, the RALB (100 mg/kg, 9 h, dose level Low) was 3.8 g/dL, the TBIL (100 mg/kg, 9 h, dose level Low) was 0.03 mg/dL and the TC (100 mg/kg, 9 h, dose level Low) was 77.8 mg/dL. It also gave a TG (100 mg/kg, 9 h, dose level Low) of 91.2 mg/dL, a TP (100 mg/kg, 9 h, dose level Low) of 5.6 g/dL and a gamma-GTP (100 mg/kg, 9 h, dose level Low) of 1 IU/L. For the same molecule, the TERMINAL_BW [1] was 237.1 g, the TERMINAL_BW [2] was 213.4 g and the APTT [1] was 18.4 s. The Bas [1] was 0%, the Eos [1] was 1% and the Fbg [1] was 214.8 mg/dL. For the same molecule, the Hb [1] was 13.5 g/dL, the Ht [1] was 38.6% and the Lym [1] was 79.6%. The MCH [1] was 22.1 pg, the MCHC [1] was 35.2% and the MCV [1] was 62.9 fL. For the same molecule, the Mono [1] was 2.6%, the Neu [1] was 15.2% and the PT [1] was 12.3 s. For the same molecule, the Plat [1] was 116.3 x10_4/uL, the RBC [1] was 614.4 x10_4/ul and the Ret [1] was 6.9%. For the same molecule, the WBC [1] was 90.9 x10_2/uL, the APTT [2] was 16.1 s and the Eos [2] was 0.8%. The Fbg [2] was 227 mg/dL, the Hb [2] was 13.1 g/dL and the Ht [2] was 40%. It also gave a Lym [2] of 74.8%, an MCH [2] of 20.8 pg and an MCHC [2] of 32.7%. It also gave an MCV [2] of 63.7 fL, a Mono [2] of 10.2% and a Neu [2] of 14.2%. It also gave a PT [2] of 12 s, a Plat [2] of 129.7 x10_4/uL and an RBC [2] of 628.4 x10_4/ul. The Ret [2] was 5.8%, the WBC [2] was 76.3 x10_2/uL and the KIDNEY_L [1] was 1.1 g. For the same molecule, the KIDNEY_R [1] was 1.1 g, the KIDNEY_TOTAL [1] was 2.1 g and the KIDNEY_L [2] was 1 g. The KIDNEY_R [2] was 1 g, the LIVER [1] was 12.4 g and the LIVER [2] was 10.4 g. The A/G [1] was 1.6, the ALP [1] was 970.4 IU/L and the ALT [1] was 39.2 IU/L. It also gave an AST [1] of 63.4 IU/L, a BUN [1] of 15.8 mg/dL and a CRE [1] of 0.4 mg/dL. For the same molecule, the Ca [1] was 10.8 mg/dL, the Cl [1] was 102.4 meq/L and the DBIL [1] was 0.1 mg/dL. It also gave a GLC [1] of 219.8 mg/dL, an IP [1] of 7.3 mg/dL and a K [1] of 4.3 meq/L. For the same molecule, the LDH [1] was 196.4 IU/L, the Na [1] was 139.6 meq/L and the PL [1] was 159.2 mg/dL. It also gave an RALB [1] of 3.3 g/dL, a TBIL [1] of 0.2 mg/dL and a TC [1] of 79.2 mg/dL. It also gave a TG [1] of 112.4 mg/dL, a TP [1] of 5.4 g/dL and a gamma-GTP [1] of 0.6 IU/L. The A/G [2] was 2.2, the ALP [2] was 1379.2 IU/L and the ALT [2] was 32.6 IU/L. For the same molecule, the AST [2] was 62.6 IU/L, the BUN [2] was 15.4 mg/dL and the Ca [2] was 11.1 mg/dL. The Cl [2] was 105.4 meq/L, the DBIL [2] was 0.01 mg/dL and the GLC [2] was 194.2 mg/dL. It also gave an IP [2] of 9.1 mg/dL, a K [2] of 4.7 meq/L and an LDH [2] of 73.4 IU/L. For the same molecule, the Na [2] was 141 meq/L, the PL [2] was 150.8 mg/dL and the RALB [2] was 3.8 g/dL. The TBIL [2] was 0.028 mg/dL, the TC [2] was 85.8 mg/dL and the TG [2] was 118.6 mg/dL. It also gave a TP [2] of 5.6 g/dL, a gamma-GTP [2] of 0 IU/L and a TERMINAL_BW [3] of 206.1 g. The APTT [3] was 16.4 s, the Bas [3] was 0% and the Eos [3] was 1%. The Fbg [3] was 227.6 mg/dL, the Hb [3] was 13.2 g/dL and the Ht [3] was 40.2%. The Lym [3] was 72.2%, the MCH [3] was 21.2 pg and the MCHC [3] was 32.9%. The MCV [3] was 64.5 fL, the Mono [3] was 5% and the Neu [3] was 21.8%. For the same molecule, the PT [3] was 11.9 s, the Plat [3] was 123.8 x10_4/uL and the RBC [3] was 623.2 x10_4/ul. The Ret [3] was 7.6%, the WBC [3] was 84.5 x10_2/uL and the KIDNEY_L [3] was 0.9 g. For the same molecule, the KIDNEY_R [3] was 0.9 g, the KIDNEY_TOTAL [3] was 1.8 g and the LIVER [3] was 8.5 g. It also gave an A/G [3] of 2.2, an ALP [3] of 1192.4 IU/L and an ALT [3] of 38 IU/L. For the same molecule, the AST [3] was 65 IU/L, the BUN [3] was 12.4 mg/dL and the CRE [3] was 0.4 mg/dL. For the same molecule, the Ca [3] was 11.5 mg/dL, the Cl [3] was 103 meq/L and the DBIL [3] was 0.004 mg/dL. It also gave a GLC [3] of 185.2 mg/dL, an IP [3] of 10.1 mg/dL and a K [3] of 4.2 meq/L. It also gave an LDH [3] of 108.2 IU/L, a Na [3] of 138.6 meq/L and a PL [3] of 131.6 mg/dL. The RALB [3] was 4 g/dL, the TBIL [3] was 0.03 mg/dL and the TC [3] was 86.4 mg/dL. The TG [3] was 37.2 mg/dL, the TP [3] was 5.8 g/dL and the gamma-GTP [3] was 1 IU/L. It also gave a TERMINAL_BW [4] of 204.8 g, an APTT [4] of 16.7 s and a Bas [4] of 0%. The Eos [4] was 1.4%.
